The results in this text go back to paper PMC9821843, “Powerful Potential of Polyfluoroalkyl-Containing 4-Arylhydrazinylidenepyrazol-3-ones for Pharmaceuticals” (Molecules, 2022).

Each structure is given as a SMILES string. ≈ marks a conversion by molar mass, not a printed value. Where “and” joins values, the source holds several entries; their conditions need not be identical. Equal entries are not always repeated. Where two headings read alike, the source gives them in different places. Bounds are passed on as bounds.

Data set [1] can be described thus: ABTS radical cation scavenging activity assay. Details: key to ABTS•+-scavenging activity, TEAC (trolox equivalent antioxidant capacity): TEAC = ratio of compound slope to Trolox slope vs ABTS absorbance. Conditions: mean ± SEM; for ABTS•+-scavenging activity, TEAC (trolox equivalent antioxidant capacity): n.a. = inactive. The essentials: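 ABTS•+ (from 7 mM ABTS plus 2.45 mM persulfate) mixed with compound, 5 × 10^–7–4 × 10^–4 M, 1 h at 30 °C; absorbance decrease read at 734 nm. TEAC from slope ratio versus Trolox; IC50 as 50% radical reduction for compounds exceeding 60% reduction at 100 µM.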

A short description of data set [2]: Acute toxicity evaluation in mice (ip). The note with it: CD-1, mouse, in vivo, 300 mg/kg. The method, then:
The toxicity evaluation was performed on CD-1 mice. […] The tested compounds in 1% starch mucilage were injected intraperitoneally into three mice. Then, animals were observed during 14 days, the number of deaths was counted and % of viability calculated.

Data set [3] deals with Sprague-Dawley (SD) rats. Kind of data set: Hot plate test (analgesic activity). Type of data set: in vivo. The note with it: ip; for change in vivo at 15 mg/kg: Rattus norvegicus. A digest of the protocol:
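Test compounds were given i.p. as suspensions in 1% starch mucilage to SD rats (3 male, 3 female per group), vehicle as negative control. At 1 and 2 h post-dose, latency to nociceptive response (jumping, hind paw licking/shaking) on a 50 °C plate was recorded, 30 s cutoff.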

For data set [4], the target named is porcine liver carboxylesterase (CES, EC 3.1.1.1) (Sus scrofa, UniProt Q29550). Kind of data set: Inhibition of porcine liver carboxylesterase (4-NPA colorimetric assay). The format is biochemical. Conditions: 20 µM; n.a. = inactive at 20 µM; mean ± SEM, n = 3. An excerpt: The following enzymes were purchased from Sigma-Aldrich (Saint Louis, MO, USA): porcine liver carboxylesterase (CES, EC 3.1.1.1), human erythrocyte acetylcholinesterase (AChE, EC 3.1.1.7) and equine serum butyrylcholinesterase (BChE, EC 3.1.1.8). Substrates for CES, AChE and BChE were 4-nitrophenyl acetate (4-NPA), acetylthiocholine iodide (ATCh) and butyrylthiocholine iodide (BTCh), respectively, and the colorimetric reagent for the AChE and BChE assays was 5,5’-dithio-bis-(2-nitrobenzoic acid) (DTNB) (Sigma-Aldrich). All the kinetic experiments were performed under standard conditions, according to the protocol of IPAC RAS for a reversible inhibitors study.
The CES (porcine liver) activity was assessed colorimetrically in 0.1 M K/Na phosphate buffer pH 8.0, 25 °C, by measuring the absorbance of 4-nitrophenol at 405 nm. Final enzyme and substrate (4-NPA) concentrations were 0.02 unit/mL and 1 mM, respectively. Reagent blanks included all constituents except enzyme.
Test compounds were dissolved in DMSO. Reaction mixtures contained a final DMSO concentration of 2% (v/v). Enzyme inhibition was first assessed at a single concentration of 20 µM for each compound after a 5 min incubation at 25 °C in three separate experiments. […] Substrate was then added and residual enzyme activity relative to an inhibitor-free control was measured using a Bio-Rad Benchmark Plus microplate reader (Marnes-la-Coquette, France).
Measurements were performed in a Bio-Rad Benchmark Plus microplate reader. Each experiment was performed in triplicate. Plots, linear regressions and values of IC50, were determined using Origin 6.1 for Windows, OriginLab (Northampton, MA, USA). Results were calculated using GraphPad Prism version 6.05 for Windows, GraphPad Software (La Jolla, CA, USA) and presented as mean ± SEM.

In data set [5] the test system is Neisseria gonorrhoeae ATCC 49226/NCTC 12700. Kind of data set: Antibacterial activity against Neisseria gonorrhoeae. The format is cell-based. Conditions: read-out: MIC against Neisseria gonorrhoeae.
Where [6] appears, read: hot plate test, rats, dose 15 mg/kg, 1 h, n.a. = inactive (p > 0.05), read-out: Latent Period Prolongation, % 1 h.
The mark [7] stands for this setting: hot plate test, rats, dose 15 mg/kg, 2 h, n.a. = inactive (p > 0.05), read-out: Latent Period Prolongation, % 2 h.
[8] abbreviates: 1 h, read-out: Latent Period Prolongation, % 1 h.
Where [9] appears, read: 2 h, read-out: Latent Period Prolongation, % 2 h.

Chain of porcine liver carboxylesterase (CES, EC 3.1.1.1) (Q29550 19-566): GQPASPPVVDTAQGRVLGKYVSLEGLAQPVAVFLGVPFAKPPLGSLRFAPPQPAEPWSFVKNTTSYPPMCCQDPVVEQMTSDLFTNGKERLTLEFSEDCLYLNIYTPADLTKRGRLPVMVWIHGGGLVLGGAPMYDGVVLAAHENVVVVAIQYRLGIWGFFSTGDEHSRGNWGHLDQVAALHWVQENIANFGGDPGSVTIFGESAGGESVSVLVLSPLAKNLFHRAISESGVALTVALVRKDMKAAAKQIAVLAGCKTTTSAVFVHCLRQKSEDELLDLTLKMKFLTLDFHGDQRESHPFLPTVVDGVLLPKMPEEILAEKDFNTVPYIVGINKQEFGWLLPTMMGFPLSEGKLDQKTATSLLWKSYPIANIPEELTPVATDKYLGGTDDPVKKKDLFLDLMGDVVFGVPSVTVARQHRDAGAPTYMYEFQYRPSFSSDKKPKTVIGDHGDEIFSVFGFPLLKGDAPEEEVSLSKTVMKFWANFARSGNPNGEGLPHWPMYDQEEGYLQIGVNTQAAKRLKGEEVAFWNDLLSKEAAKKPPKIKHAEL

In general, IC50 refers to the concentration that inhibits the measured activity by half. In the case of `O=C1NN=C(C(F)(F)F)/C1=N/Nc1ccccc1` [5a, (Z)-4-(2-Phenylhydrazinylidene)-5-(trifluoromethyl)-2,4-dihydro-3H-pyrazol-3-one], in data set [1], the IC50 was 42.8 ± 2.3 µM and the “ABTS•+-scavenging activity, TEAC (trolox equivalent antioxidant capacity)” value (shortened to “ABTS•+-scavenging activity, TEAC”) is given as 0.50 ± 0.03. The compound further gave a survival at 14 days in data set [2] of 100%. In addition, in data set [3] (setting [6]), the change in vivo at 15 mg/kg worked out at 40%.
Broadly, the inhibition is the share of the control response that was lost under treatment. What is called MIC is the lowest concentration found to suppress growth. On to `O=C1NN=C(C(F)(F)F)/C1=N/Nc1ccc(Br)cc1` [5c, (4Z)-4-[2-(4-Bromophenyl)hydrazinylidene]-5-(trifluoromethyl)-2,4-dihydro-3H-pyrazol-3-one], for which 20 µM produced 5.5 ± 0.9% inhibition in data set [4]. Also, in data set [1], the IC50 is 41.5 ± 2.4 µM and the “ABTS•+-scavenging activity, TEAC” value turned out to be 0.40 ± 0.02. In addition, the MIC in data set [5] worked out at 125 mg/L (≈ 373 µM). The same compound showed a survival at 14 days in data set [2] of 100%. For the same compound, the change in vivo at 15 mg/kg in data set [3] (setting [7]) was 51%.
Take `Cc1ccc(N/N=C2\C(=O)N(c3ccccc3)N=C2C(F)(F)F)cc1` [5f, (4Z)-4-[2-(4-Methylphenyl)hydrazinylidene]-2-phenyl-5-(trifluoromethyl)-2,4-dihydro-3H-pyrazol-3-one]: the “ABTS•+-scavenging activity, TEAC” value in data set [1] worked out at 0.1 ± 0.006. In data set [5], the MIC was 62.5 mg/L (≈ 180 µM). Moreover, the survival at 14 days in data set [2] was determined as 100%. Moreover, the change in vivo at 15 mg/kg in data set [3] (setting [6]) is 63%; in data set [3] (setting [7]), 68%.
`CC1=NNC(=O)/C1=N\Nc1ccc(C)cc1` [9a, (4Z)-5-Methyl-4-[2-(4-methylphenyl)hydrazinylidene]-2,4-dihydro-3H-pyrazol-3-one]: in data set [1], the IC50 was 25.4 ± 1.1 µM; the “ABTS•+-scavenging activity, TEAC” value is 0.86 and 0.86 ± 0.04. The MIC in data set [5] is above 250 mg/L. Moreover, in data set [2], the survival at 14 days was 100%. Besides, in data set [3] (setting [6]), the change in vivo at 15 mg/kg was 80.8%.
As to `CC1=NN(c2ccccc2)C(=O)/C1=N\Nc1ccc(C)cc1` [9b, (4Z)-5-Methyl-4-[2-(4-methylphenyl)hydrazinylidene]-2-phenyl-2,4-dihydro-3H-pyrazol-3-one], in data set [4], the inhibition at 20 µM was found to be 10.3 ± 2.4%. Besides, in data set [1], the IC50 came to 28.3 ± 1.2 µM; the “ABTS•+-scavenging activity, TEAC” value is 0.8 and 0.80 ± 0.05. For the same compound, in data set [5], the MIC was above 250 mg/L. The survival at 14 days in data set [2] was determined as 100%. Also, the change in vivo at 15 mg/kg in data set [3] (setting [7]) is 140%.
Consider `Cc1ccc(N/N=C2\C(=O)NN=C2C(F)(F)C(F)(F)F)cc1` [6a, (4Z)-4-[2-(4-Methylphenyl)hydrazinylidene]-5-(pentafluoroethyl)-2,4-dihydro-3H-pyrazol-3-one], for which, in data set [4], the inhibition at 20 µM was 7.8 ± 1.4%. Moreover, in data set [1], the IC50 stood at 46.8 ± 2.1 µM and the “ABTS•+-scavenging activity, TEAC” value is recorded as 0.45 ± 0.03. In addition, the minimal inhibitory concentration (MIC) in data set [5] was 62.5 mg/L (≈ 195 µM). In data set [2], the survival at 14 days worked out at 100%. Besides, the change in vivo at 15 mg/kg in data set [3] (setting [6]) was determined as 83.9%. In data set [3] (setting [7]), the change in vivo at 15 mg/kg turned out to be 63.3%.
`Cc1ccc(N/N=C2\C(=O)NN=C2C(F)(F)F)cc1` [5b, (4Z)-4-[2-(4-Methylphenyl)hydrazinylidene]-5-(trifluoromethyl)-2,4-dihydro-3H-pyrazol-3-one] had an inhibition at 20 µM in data set [4] of 10.1 ± 1.7%. Besides, in data set [1], the IC50 amounted to 46.2 ± 2.4 µM and the “ABTS•+-scavenging activity, TEAC” value is 0.42 ± 0.03. Also, the minimal inhibitory concentration (MIC) in data set [5] amounted to 62.5 mg/L (≈ 231 µM). The survival at 14 days in data set [2] worked out at 100%. Also, the change in vivo at 15 mg/kg in data set [3] (setting [6]) worked out at 69.5%. The change in vivo at 15 mg/kg in data set [3] (setting [7]) is 59.7%.
Turning to `Cc1ccc(N/N=C2\C(=O)N(c3ccccc3)N=C2C(F)(F)C(F)(F)C(F)(F)F)cc1` [7b, (4Z)-5-(Heptafluoropropyl)-4-[2-(4-methylphenyl)hydrazinylidene]-2-phenyl-2,4-dihydro-3H-pyrazol-3-one], in data set [1], the “ABTS•+-scavenging activity, TEAC” value was determined as 0.03 ± 0.002. For the same compound, the MIC in data set [5] amounted to 31.2 mg/L (≈ 69.9 µM). The compound also returned a survival at 14 days in data set [2] of 100%. Further, the change in vivo at 15 mg/kg in data set [3] (setting [8]) amounted to 144%; in data set [3] (setting [9]), 82.3%.
In data set [4], `Cc1ccc(N/N=C2\C(=O)N(c3ccc(S(N)(=O)=O)cc3)N=C2C(F)(F)F)cc1` [5p, (4Z)-2-[4-(Aminosulfonyl)phenyl]-4-[2-(4-methylphenyl)hydrazinylidene]-5-(trifluoromethyl)-2,4-dihydro-3H-pyrazol-3-one] gave an inhibition at 20 µM of 5.7 ± 1%. The “ABTS•+-scavenging activity, TEAC” value in data set [1] came to 0.03 ± 0.002. In addition, the MIC in data set [5] was found to be 62.5 mg/L (≈ 147 µM). Besides, in data set [2], the survival at 14 days is 100%. In addition, the results for the change in vivo at 15 mg/kg in data set [3] (setting [6]) and in data set [3] (setting [7]) were 62.1% and 70.9%, respectively.
`CS(=O)(=O)c1ccc(N/N=C2\C(=O)N(c3ccccc3)N=C2C(F)(F)F)cc1` [5m, (4Z)-4-(2-[4-(Methylsulfonyl)phenyl]hydrazinylidene)-2-phenyl-5-(trifluoromethyl)-2,4-dihydro-3H-pyrazol-3-one] displayed an inhibition at 20 µM in data set [4] of 20.4 ± 1.6%. In addition, the MIC in data set [5] turned out to be 125 mg/L (≈ 305 µM). In data set [2], the survival at 14 days was found to be 100%. The change in vivo at 15 mg/kg in data set [3] (setting [6]) came to 116%; in data set [3] (setting [7]), 144%.
`Cc1ccc(N/N=C2\C(=O)NN=C2C(F)(F)C(F)(F)C(F)(F)F)cc1` [7a, (4Z)-5-(Heptafluoropropyl)-4-[2-(4-methylphenyl)hydrazinylidene]-2,4-dihydro-3H-pyrazol-3-one] had an inhibition at 20 µM in data set [4] of 9.9 ± 0.7%. In addition, the IC50 in data set [1] came to 41.5 ± 1.8 µM. For the same compound, the “ABTS•+-scavenging activity, TEAC” value in data set [1] amounted to 0.54 ± 0.03. Further, the MIC in data set [5] was above 250 mg/L. In data set [2], this compound showed a survival at 14 days of 100%. For the same compound, the values for the change in vivo at 15 mg/kg in data set [3] (setting [8]) and in data set [3] (setting [9]) were 42% and 52%, respectively.
For `Cc1ccc(N/N=C2\C(=O)N(C)N=C2C(F)(F)F)cc1` [5d, (4Z)-2-Methyl-4-[2-(4-methylphenyl)hydrazinylidene]-5-(trifluoromethyl)-2,4-dihydro-3H-pyrazol-3-one], in data set [1], the IC50 was determined as 161 ± 3.2 µM and the “ABTS•+-scavenging activity, TEAC” value came to 0.15 ± 0.01. Moreover, the MIC in data set [5] stood at 15.6 mg/L (≈ 54.9 µM). The survival at 14 days in data set [2] came to 100%. The “analgesic activity in the hot plate test” value in data set [3] (SD rats, dose 15 mg/kg, 1 and 2 h) is “inactive”.
Take `Cc1ccc(N/N=C2\C(=O)N(c3ccccc3)N=C2C(F)(F)C(F)(F)F)cc1` [6b, (4Z)-4-[2-(4-Methylphenyl)hydrazinylidene]-5-(pentafluoroethyl)-2-phenyl-2,4-dihydro-3H-pyrazol-3-one]: the “ABTS•+-scavenging activity, TEAC” value in data set [1] came out at 0.04 ± 0.002. Also, the MIC in data set [5] worked out at 0.9 mg/L (≈ 2.27 µM). The compound also had a survival at 14 days in data set [2] of 100%. In addition, the change in vivo at 15 mg/kg worked out at 158% in data set [3] (setting [6]) and 74.3% in data set [3] (setting [7]).
